According to patent US11691971B2, “Naphthyridinone compounds as JAK2 V617F inhibitors” (Incyte Corporation, priority 2020, dated 2023):
Counter-ions that a name gives are not always drawn.

What was measured:
[1] = target: catalytic domain (JH1, amino acids 826-1132) of human JAK2 (Homo sapiens (Human), UniProt O60674); experiment: JAK2 LanthaScreen JH1 Binding Assay; details: JAK2 JH1 1.5 nM, 50 nM tracer, 2 hours at 25° C.; read-out: JH1BIND IC50
Description: Example A. JAK2 LanthaScreen JH1 Binding Assay
(§1) JAK2 JH1 binding assay utilizes catalytic domain (JH1, amino acids 826-1132) of human JAK2 expressed as N-terminal FLAG-tagged, biotinylated protein in a baculovirus expression system (Carna Biosciences, Product #08-445-20N). The assay was conducted in black 384-well polystyrene plates in a final reaction volume of 20 μL. JAK2 JH1 (1.5 nM) was incubated with compounds (100 nL serially diluted in DMSO) in the presence of 50 nM fluorescent JAK2-JH1 tracer and 0.5 nM Streptavidin-Tb cryptate (Cisbio Part #610SATLB) in assay buffer (50 mM Tris, pH=7.5, 10 mM MgCl2, 0.01% Brij-35, 0.1% BSA, 1 mM EGTA, 5% Glycerol and 5 mM DTT). Non-specific binding was accessed in the presence of 2 mM ATP. After incubation for 2 hours at 25° C., LanthaScreen signals were read on a PHERAstar FS plate reader (BMG LABTECH). Data was analyzed with IDBS XLfit and GraphPad Prism 5.0 software using a four parameter dose response curve to determine IC50 for each compound.

[2] = target: pseudo-kinase domain (JH2) of human V617F mutant JAK2 (Homo sapiens (Human), UniProt O60674, F794H/V617F/W659A/W777A); experiment: JAK2 LanthaScreen JH2-V617F Binding Assay; details: JAK2 JH2-V617F 0.26 nM, 50 nM tracer, 1 hour at 25° C.; read-out: JH2BINDING_V617F IC50
Sequence of pseudo-kinase domain (JH2) of human V617F mutant JAK2 (O60674 536-812 V617F/W659A/W777A/F794H): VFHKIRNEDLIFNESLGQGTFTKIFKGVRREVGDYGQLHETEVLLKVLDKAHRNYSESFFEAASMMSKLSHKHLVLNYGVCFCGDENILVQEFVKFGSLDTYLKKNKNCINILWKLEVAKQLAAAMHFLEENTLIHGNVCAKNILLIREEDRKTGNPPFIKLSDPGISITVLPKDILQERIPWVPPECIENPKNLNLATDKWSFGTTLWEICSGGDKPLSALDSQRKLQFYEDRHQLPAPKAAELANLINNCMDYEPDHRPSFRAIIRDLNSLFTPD
Description: The assay was conducted in black 384-well polystyrene plates in a final reaction volume of 20 μL. […] Non-specific binding was accessed in the presence of 2 mM ATP. After incubation for 1 hour at 25° C., LanthaScreen signals were read on a PHERAstar FS plate reader (BMG LABTECH). Data was analyzed with IDBS XLfit and GraphPad Prism 5.0 software using a four parameter dose response curve to determine IC50 for each compound.

[3] = target: catalytic domain (JH1, amino acids 808-1132) of human JAK2 (Homo sapiens (Human), UniProt O60674); experiment: JAK2 HTRF Enzyme Activity Assay; assay type: biochemical; details: ATP 30 μM, 60 minutes at 25° C.; read-out: ENZ 30UMATP IC50
Sequence of catalytic domain (JH1, amino acids 808-1132) of human JAK2 (O60674 808-1132): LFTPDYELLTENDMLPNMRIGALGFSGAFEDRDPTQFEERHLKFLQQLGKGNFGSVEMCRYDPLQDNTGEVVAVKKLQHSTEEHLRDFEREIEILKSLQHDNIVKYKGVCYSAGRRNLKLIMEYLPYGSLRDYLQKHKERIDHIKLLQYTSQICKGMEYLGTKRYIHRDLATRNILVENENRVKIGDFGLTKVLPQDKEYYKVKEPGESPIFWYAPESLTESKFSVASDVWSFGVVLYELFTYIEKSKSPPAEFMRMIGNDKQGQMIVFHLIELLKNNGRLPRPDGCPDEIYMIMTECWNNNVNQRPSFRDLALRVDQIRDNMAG
Description: Example D. JAK2 HTRF Enzyme Activity Assay
JAK2 enzyme activity assays utilize catalytic domain (JH1, amino acids 808-1132) of human JAK2 expressed as N-terminal His-tagged protein in a baculovirus expression system (BPS Bioscience, Catalog #40450). The assays was conducted in black 384-well polystyrene plates in a final reaction volume of 20 μL. JAK2 (0.015 nM) was incubated with compounds (100 nL serially diluted in DMSO) in the presence of ATP (30 μM or 1 mM) and 500 nM Biotin-labeled […] (SEQ ID NO.: 1) peptide (BioSource International, custom synthesis) in assay buffer (50 mM Tris, pH=7.5, 10 mM MgCl2, 0.01% Brij-35, 0.1% BSA, 1 mM EGTA, 5% Glycerol and 5 mM DTT) for 60 minutes at 25° C. The reactions were stopped by the addition of 10 μL of detection buffer (50 mM Tris, pH 7.8, 0.5 mg/mL BSA, 150 mM NaCl), supplemented with EDTA, LANCE Eu-W1024 anti-phosphotyrosine (PY20), (PerkinElmer, Catalog #AD0067) and Streptavidin SureLight APC (PerkinElmer Catalog #CR130-100), for a final concentration of 15 mM, 1.5 nM and 75 nM, respectively. HTRF signals were read after 30 minutes incubation at room temperature on a PHERAstar FS plate reader (BMG LABTECH). Data was analyzed with IDBS XLfit and GraphPad Prism 5.0 software using a four parameter dose response curve to determine IC50 for each compound.

[4] = target: pseudo-kinase domain (JH2) of human Wild Type JAK2 (Homo sapiens (Human), UniProt O60674, F794H/W659A/W777A); experiment: JAK2 LanthaScreen JH2-WT Binding Assay; details: JAK2 JH2-WT 0.145 nM, 50 nM tracer, 1 hour at 25° C.; read-out: JH2BIND_WT IC50
Sequence of pseudo-kinase domain (JH2) of human Wild Type JAK2 (O60674 536-812 W659A/W777A/F794H): as the sequence (O60674 536-812 V617F/W659A/W777A/F794H) above, with F82V counted along it
Description: Example B. JAK2 LanthaScreen JH2-WT Binding Assay
as §1, with “The” for “JAK2 JH1 binding assay utilizes catalytic domain (JH1, amino acids 826-1132) of human JAK2 expressed as N-terminal FLAG-tagged, biotinylated protein in a baculovirus expression system (Carna Biosciences, Product #08-445-20N). The”, “JH2-WT (0.145” for “JH1 (1.5”, “Fluorescent JAK2-JH2 Tracer (MedChem Express Catalog #HY-102055)” for “fluorescent JAK2-JH1 tracer”, “0.25” for “0.5”, “1 hour” for “2 hours”

Sequence of catalytic domain (JH1, amino acids 826-1132) of human JAK2 (O60674 826-1132): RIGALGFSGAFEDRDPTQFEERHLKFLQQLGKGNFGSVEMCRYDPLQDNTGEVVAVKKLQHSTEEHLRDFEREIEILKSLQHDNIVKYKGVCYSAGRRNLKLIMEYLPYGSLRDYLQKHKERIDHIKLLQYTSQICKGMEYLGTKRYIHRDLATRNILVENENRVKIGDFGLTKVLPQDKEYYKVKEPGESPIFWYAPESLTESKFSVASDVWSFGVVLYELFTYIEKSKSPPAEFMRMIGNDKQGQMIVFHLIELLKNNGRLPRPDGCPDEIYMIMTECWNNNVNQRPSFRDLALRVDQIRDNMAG

SMILES: CNc1ccccc1Nc1cc(NC(=O)C2CC2)nc2cc[nH]c(=O)c12 [Example 22, N-(4-((2-(Methylamino)phenyl)amino)-5-oxo-5,6-dihydro-1,6-naphthyridin-2-yl)cyclopropanecarboxamide Trifluoroacetic Acid Salt]
- IC50 [1]: > 10 µM
- IC50 [2]: > 10 µM
- IC50 [3]: > 10 µM
- IC50 [4]: > 10 µM

SMILES: COc1c(Nc2cc(NC(=O)C3CC3)nc3cc[nH]c(=O)c23)cccc1-c1cnc(C2CCOCC2)s1 [Example 2, N-(4-((2-Methoxy-3-(2-(tetrahydro-2H-pyran-4-yl)thiazol-5-yl)phenyl)amino)-5-oxo-5,6-dihydro-1,6-naphthyridin-2-yl)cyclopropanecarboxamide Trifluoroacetic Acid Salt]
- IC50 [1]: > 10 µM
- IC50 [2]: ≤ 0.1 µM
- IC50 [3]: > 10 µM
- IC50 [4]: ≤ 0.1 µM

SMILES: O=C(Nc1cc(Nc2ccccc2OC(F)F)c2c(=O)[nH]ccc2n1)C1CC1 [Example 20, N-(4-((2-(Difluoromethoxy)phenyl)amino)-5-oxo-5,6-dihydro-1,6-naphthyridin-2-yl)cyclopropanecarboxamide Trifluoroacetic Acid Salt]
- IC50 [1]: 1 to 10 µM
- IC50 [2]: 1 to 10 µM
- IC50 [3]: 1 to 10 µM
- IC50 [4]: 1 to 10 µM

SMILES: O=C(Nc1cc(Nc2cccc(-c3cnn(C4CCOCC4)c3)c2)c2c(=O)[nH]ccc2n1)C1CC1 [Example 6, N-(5-oxo-4-((3-(1-(tetrahydro-2H-pyran-4-yl)-1H-pyrazol-4-yl)phenyl)amino)-5,6-dihydro-1,6-naphthyridin-2-yl)cyclopropanecarboxamide Trifluoroacetic Acid Salt]
- IC50 [1]: 1 to 10 µM
- IC50 [2]: > 10 µM
- IC50 [3]: 1 to 10 µM
- IC50 [4]: > 10 µM

SMILES: COc1ccccc1Nc1cc(NC(=O)C2CC2)nc2cc[nH]c(=O)c12 [Example 21, N-(4-((2-Methoxyphenyl)amino)-5-oxo-5,6-dihydro-1,6-naphthyridin-2-yl)cyclopropanecarboxamide]
- IC50 [1]: 1 to 10 µM
- IC50 [2]: > 10 µM
- IC50 [3]: 1 to 10 µM
- IC50 [4]: 1 to 10 µM

SMILES: COc1c(Nc2cc(NC(=O)C3CC3)nc3ccn(C)c(=O)c23)cccc1-c1cnc(C2CCOCC2)s1 [Example 10, N-(4-((2-Methoxy-3-(2-(tetrahydro-2H-pyran-4-yl)thiazol-5-yl)phenyl)amino)-6-methyl-5-oxo-5,6-dihydro-1,6-naphthyridin-2-yl)cyclopropanecarboxamide Trifluoroacetic Acid Salt]
- IC50 [1]: > 10 µM
- IC50 [2]: 1 to 10 µM
- IC50 [3]: > 10 µM
- IC50 [4]: 1 to 10 µM

SMILES: O=C(Nc1cc(Nc2ccccc2OC2CC2)c2c(=O)[nH]ccc2n1)C1CC1 [Example 24, N-(4-((2-Cyclopropoxyphenyl)amino)-5-oxo-5,6-dihydro-1,6-naphthyridin-2-yl)cyclopropanecarboxamide Trifluoroacetic Acid Salt]
- IC50 [1]: 1 to 10 µM
- IC50 [2]: 1 to 10 µM
- IC50 [3]: 0.5 to 1 µM
- IC50 [4]: 1 to 10 µM

SMILES: CCn1ccc2cccc(Nc3cc(NC(=O)C4CC4)nc4cc[nH]c(=O)c34)c21 [Example 9, N-(4-((1-Ethyl-1H-indol-7-yl)amino)-5-oxo-5,6-dihydro-1,6-naphthyridin-2-yl)cyclopropanecarboxamide Trifluoroacetic Acid Salt]
- IC50 [1]: > 10 µM
- IC50 [2]: 1 to 10 µM
- IC50 [3]: > 10 µM
- IC50 [4]: 1 to 10 µM

SMILES: COc1c(Nc2cc(NC(=O)C3CC3)nc3cc[nH]c(=O)c23)cccc1C(F)(F)F [Example 14, N-(4-((2-Methoxy-3-(trifluoromethyl)phenyl)amino)-5-oxo-5,6-dihydro-1,6-naphthyridin-2-yl)cyclopropanecarboxamide Trifluoroacetic Acid Salt]
- IC50 [1]: > 10 µM
- IC50 [2]: 0.1 to 0.5 µM
- IC50 [3]: > 10 µM
- IC50 [4]: 0.1 to 0.5 µM

SMILES: O=C(Nc1cc(Nc2ccccc2CO)c2c(=O)[nH]ccc2n1)C1CC1 [Example 23, N-(4-((2-(Hydroxymethyl)phenyl)amino)-5-oxo-5,6-dihydro-1,6-naphthyridin-2-yl)cyclopropanecarboxamide Trifluoroacetic Acid Salt]
- IC50 [1]: 1 to 10 µM
- IC50 [2]: > 10 µM
- IC50 [3]: 1 to 10 µM
- IC50 [4]: 1 to 10 µM

SMILES: COc1c(Nc2cc(NC(=O)C3CC3)nc3cc[nH]c(=O)c23)cccc1C(=O)NCC1CCOCC1 [Example 11, 3-((2-(Cyclopropanecarboxamido)-5-oxo-5,6-dihydro-1,6-naphthyridin-4-yl)amino)-2-methoxy-N-((tetrahydro-2H-pyran-4-yl)methyl)benzamide Trifluoroacetic Acid Salt]
- IC50 [1]: > 10 µM
- IC50 [2]: 1 to 10 µM
- IC50 [3]: > 10 µM
- IC50 [4]: 1 to 10 µM

SMILES: COc1c(Nc2cc(NC(=O)C3CC3)nc3cc[nH]c(=O)c23)cccc1N1CCN(S(=O)(=O)C2CC2)CC1 [Example 4, N-(4-((3-(4-(Cyclopropylsulfonyl)piperazin-1-yl)-2-methoxyphenyl)amino)-5-oxo-5,6-dihydro-1,6-naphthyridin-2-yl)cyclopropanecarboxamide Trifluoroacetic Acid Salt]
- IC50 [1]: 1 to 10 µM
- IC50 [2]: 0.1 to 0.5 µM
- IC50 [3]: > 10 µM
- IC50 [4]: 0.1 to 0.5 µM

SMILES: COc1c(Nc2cc(NC(=O)C3CC3)nc3cc[nH]c(=O)c23)cccc1-c1cnn(C2CCCC2)c1 [Example 3, N-(4-((3-(1-Cyclopentyl-1H-pyrazol-4-yl)-2-methoxyphenyl)amino)-5-oxo-5,6-dihydro-1,6-naphthyridin-2-yl)cyclopropanecarboxamide Trifluoroacetic Acid Salt]
- IC50 [1]: > 10 µM
- IC50 [2]: 0.1 to 0.5 µM
- IC50 [3]: > 10 µM
- IC50 [4]: 0.1 to 0.5 µM

SMILES: COc1c(Nc2cc(NC(=O)C3CC3)nc3cc[nH]c(=O)c23)cccc1-c1cnn(C2CCOCC2)c1 [Example 5, N-(4-((2-Methoxy-3-(1-(tetrahydro-2H-pyran-4-yl)-1H-pyrazol-4-yl)phenyl)amino)-5-oxo-5,6-dihydro-1,6-naphthyridin-2-yl)cyclopropanecarboxamide Trifluoroacetic Acid Salt]
- IC50 [1]: > 10 µM
- IC50 [2]: ≤ 0.1 µM
- IC50 [3]: > 10 µM
- IC50 [4]: ≤ 0.1 µM

SMILES: O=C(Nc1cc(Nc2cccc(Cl)c2-c2cn[nH]c2)c2c(=O)[nH]ccc2n1)C1CC1 [Example 16, N-(4-((3-Chloro-2-(1H-pyrazol-4-yl)phenyl)amino)-5-oxo-5,6-dihydro-1,6-naphthyridin-2-yl)cyclopropanecarboxamide Trifluoroacetic Acid Salt]
- IC50 [1]: 1 to 10 µM
- IC50 [2]: 0.5 to 1 µM
- IC50 [3]: 1 to 10 µM
- IC50 [4]: 0.5 to 1 µM
